Structures can show the parent of a compound that is named as a salt. Where two headings read alike, the source gives them in different places.
Experiments:
proliferating TG1 GSCs [1] = assay: ATP-Glo dose-response, proliferating TG1 GSCs; type: cell-based, human
Procedure: (§1) The EC50 value was determined for each compound by fitting the data points according to the following equation: y=Smax+Smin*(x*1/EC50)^n/1+(x*1/EC50)^n where y represents the expected response, x is the chemical compound concentration, S max and S min are the maximum and minimum responses recorded, respectively and n is the Hill coefficient. Curve fitting was performed using Microsoft Excel Solver component.
(§2) Proliferating or quiescent TG1 cells were seeded in 50 μL of their respective media (30 000 and 40 000 viable cells/well, respectively) into 96-well opaque bottom plates (Greiner, Courtaboeuf, France). Compound treatment was performed by adding 50 μL of compound solutions (in the presence of 2% DMSO in culture medium). […] All compounds were tested in triplicate in each experiment. Independent experiments were performed at least twice for almost all of the compounds.

quiescent TG1 GSCs [2] = assay: ATP-Glo dose-response, quiescent TG1 GSCs; type: cell-based, human
Procedure: as §1, §2

proliferating TG16 GSCs = assay: ATP-Glo dose-response, proliferating TG16 GSCs; type: cell-based, human; settings: Homo sapiens; ATP Glo readout, 24 h treatment; read-out: P TG16 GSCs EC50
Procedure: as §1
(§3) Similar dose response curves were performed using GSCs isolated from GBM of two other patients (TG16 and OB1 GSCs) grown under proliferating and quiescent conditions.

quiescent TG16 GSCs = assay: ATP-Glo dose-response, quiescent TG16 GSCs; type: cell-based, human; settings: Homo sapiens; ATP Glo readout, 24 h treatment; read-out: Q TG16 GSCs EC50
Procedure: as §1, §3

proliferating OB1 GSCs = assay: ATP-Glo dose-response, proliferating OB1 GSCs; type: cell-based; settings: Homo sapiens; ATP Glo readout, 24 h treatment; read-out: P OB1 GSCs EC50
Procedure: as §1, §3

quiescent OB1 GSCs = assay: ATP-Glo dose-response, quiescent OB1 GSCs; type: cell-based, human; settings: Homo sapiens; ATP Glo readout, 24 h treatment; read-out: Q OB1 GSCs EC50
Procedure: as §1, §3

[3] = test system: primary astrocytes (HA cells); assay: ATP-Glo dose-response, primary astrocytes; type: cell-based, human; settings: Homo sapiens, Astrocyte; for EC50: ATP Glo readout, 24 h treatment
[4] = test system: fetal neural stem cells (f-NSC); assay: ATP-Glo dose-response, fetal neural stem cells; type: cell-based; settings: Homo sapiens, Neural stem cell; ATP Glo readout, 24 h treatment
HEK 293 cells = assay: ATP-Glo dose-response, HEK 293 cells; type: cell-based, human; settings: Homo sapiens, HEK293; ATP Glo readout, 24 h treatment
Procedure: as §1, with “component. […]” for “component.”

quiescent TG1 GSCs [5] = settings: primary screen, 50 μM, 24 h
Outline: (§4)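 Cells seeded at 30 000 (proliferating) or 40 000 (quiescent) viable cells/well and treated with compound at 50 μM final, 1% DMSO, single test; hits retested in duplicate at 50 and 5 μM. ATP measured by luminescence, as percent of the mean signal of DMSO control wells.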

quiescent TG1 cells = assay: Cell viability, trypan blue staining, quiescent TG1 cells; type: cell-based, human; settings: quiescent TG1 GSCs, 10 μM, 24 hours
Procedure: Cell mortality was evaluated by trypan blue staining (0.1% (v/v)).

Solubility measurements = type: physicochemical; settings: data not shown
proliferating TG1 GSCs [6] = settings: primary screen, 50 μM, 24 h
Outline: as §4

Astrocytes = test system: Astrocytes; design: method as in PMID 23039130; settings: literature, ref [104]; cited from earlier work
[7] = test system: human colon cancer cell line HT29; design: method as in PMID 1888153; settings: ref [58], read-out: EC50, decrease of proliferation; cited from earlier work
[8] = Homo sapiens, 24 h, ATP Glo readout, 24 h treatment, n = 3, read-out: P TG1 GSCs EC50
[9] = Homo sapiens, 24 h, ATP Glo readout, 24 h treatment, n = 3, read-out: Q TG1 GSCs EC50

Row | Structure (SMILES) | EC50 (proliferating TG1 GSCs [1]; [8]) [µM] | EC50 (quiescent TG1 GSCs [2]; [9]) [µM] | EC50 (proliferating TG16 GSCs) [µM] | EC50 (quiescent TG16 GSCs) [µM] | EC50 (proliferating OB1 GSCs) [µM] | EC50 (quiescent OB1 GSCs) [µM] | EC50 [3] [µM] | EC50 [4] [µM] | EC50 (HEK 293 cells) [µM] | Activity on quiescent TG1 GSCs (hit compounds reducing ATP levels) (quiescent TG1 GSCs [5]) | Activity on proliferating TG1 GSCs (hit compounds reducing ATP levels) (proliferating TG1 GSCs [6]) | further results
1 | CC(=O)Oc1ccc(C(c2ccc(OC(C)=O)cc2)c2ccccn2)cc1 [Compound 1, 4,4'-diacetoxydiphenyl-2-pyridyl-methane] | > 100 | ~1 | > 100 | 1.3 ± 0.1 | > 100 | 0.5 ± 0.1 | 0.6 ± 0.3 | > 100 | > 100 | yes |  | EC50 (quiescent TG1 GSCs [2]; ATP Glo readout, 24 h treatment, n = 3, listed as Bisacodyl, read-out: Q TG1 GSCs EC50): 1.07 ± 0.04 µM; Emax ([3]; HA cells, not due to cell death, read-out: maximum effect: reduction of ATP levels): 30%; cell viability (trypan blue and 7-AAD staining) (quiescent TG1 cells): resulted from cell death
2 | c1ccc(C(c2ccccc2)c2ccccn2)cc1 [Compound 6, Diphenyl-2-pyridylmethane] |  |  |  |  |  |  |  |  |  |  |  | EC50 (proliferating TG1 GSCs [1]; Homo sapiens, 24 h, SAR study, ATP-Glo cell survival assay, 24 h, triplicate, read-out: Proliferating TG1 GSCs EC50): > 100 µM; EC50 (quiescent TG1 GSCs [2]; Homo sapiens, 24 h, SAR study, ATP-Glo cell survival assay, 24 h, triplicate, read-out: Quiescent TG1 GSCs EC50): 84.8 ± 4.1 µM; solubility (Solubility measurements): not due to reduced solubility
3 | CC[C@H](C)[C@H]1O[C@]2(CC[C@@H]1C)C[C@@H]1C[C@@H](C/C=C(\C)[C@@H](O[C@H]3C[C@H](OC)[C@@H](O[C@H]4C[C@H](OC)[C@@H](O)[C@H](C)O4)[C@H](C)O3)[C@@H](C)/C=C/C=C3\CO[C@@H]4[C@H](O)C(C)=C[C@@H](C(=O)O1)[C@]34O)O2 [Ivermectin] |  |  | 1.5 ± 0.2 | 6 ± 2 | 3 ± 1 | 7 ± 2 | 3 ± 1 | 4 ± 1 | 13 ± 1 | yes | yes | EC50 (proliferating TG1 GSCs [1]; Homo sapiens, ATP Glo readout, 24 h treatment, n = 3, read-out: P TG1 GSCs EC50): 3 ± 1 µM; EC50 (quiescent TG1 GSCs [2]; Homo sapiens, ATP Glo readout, 24 h treatment, n = 3, read-out: Q TG1 GSCs EC50): 4 ± 1 µM
4 | CCOC(=O)C1=C(C)NC(C)=C(C(=O)OC)C1c1cccc(Cl)c1Cl (centres unmarked) [Felodipine] | 38 ± 1 | 30 ± 3 | 39 ± 4 | 33 ± 3 | 43 ± 5 | 41 ± 6 | 36 ± 6 | 59 ± 12 | 55 ± 2 | yes | yes | 
5 | C=C1C(=O)O[C@H]2[C@H]1CC/C(C)=C/CC[C@@]1(C)O[C@@H]21 [Parthenolide] | 15 ± 2 | 48 ± 6 | 10 ± 2 |  | 18 ± 4 | 35 ± 11 | 59 ± 4 | 8.4 ± 0.2 | 13 ± 5 | yes | yes | EC50 (Astrocytes): 186 ± 10 µM
6 | CCCCCCCCNC(C)C(O)c1ccc(SC(C)C)cc1 (centres unmarked) [Suloctidil] | 11 ± 1 | 13 ± 1 | 13.5 ± 0.1 | 14 ± 6 | 15 ± 2 | 20 ± 4 | 11 ± 1 | 5 ± 1 | 10 ± 1 | yes | yes | 
7 | CC(Cc1ccccc1)NCCC(c1ccccc1)c1ccccc1 (centres unmarked) [Prenylamine lactate] | 22 ± 3 | 27 ± 3 | 32 ± 2 | 42 ± 8 | 30 ± 7 | 49 ± 4 | 30 ± 2 | 9 ± 2 | 25 ± 6 | yes | yes | 
8 | CC(C)(C)c1ccc(C(O)CCCN2CCC(C(O)(c3ccccc3)c3ccccc3)CC2)cc1 (centres unmarked) [Terfenadine] | ~10 | 17 ± 1 | 9 ± 1 | 24 ± 6 | 10 ± 2 | 22 ± 4 | 9 ± 2 | 4 ± 1 | 8 ± 1 | yes | yes | EC50 (proliferating TG1 GSCs [1]; ATP Glo readout, 24 h treatment, n = 3, read-out: P TG1 GSCs EC50): 8 ± 1 µM
9 | C1CCC(C(CC2CCCCN2)C2CCCCC2)CC1 (centres unmarked) [Perhexilin maleate] | 10 ± 1 | 14 ± 3 | 11 ± 1 | 21 ± 4 | 12 ± 1 | 22 ± 4 | 12 ± 2 | 3 ± 1 | 12 ± 1 | yes | yes | EC50 [7]: ~10 µM

Reference: paper PMC4536076, “Chemical Library Screening and Structure-Function Relationship Studies Identify Bisacodyl as a Potent and Selective Cytotoxic Agent Towards Quiescent Human Glioblastoma Tumor Stem-Like Cells” (PLoS ONE, 2015)
